Results: patent US9993494B2, “Compositions and methods for treating fibrotic disease” (eFFECTOR Therapeutics, Inc., priority 2014, dated 2018)

System: normal human lung fibroblasts
Test: Ribosomal profiling: translational efficiency in TGFβ-treated fibroblasts
Format: cell-based
Conditions: TGFβ-treated fibroblasts
Description: Ribosomal profiling allows for measurement of changes in transcription and translation on a genome-wide basis accompanying TGFβ-dependent transformation of fibroblasts to myofibroblasts. Ribosomal profiles of the TGFβ-treated fibroblasts from Example 1 (about 6×10^6 cells/10 cm plate) were prepared and analyzed for changes in translational efficiencies with respect to potential disease-associated cellular changes accompanying this TGFβ-induced transformation.
Briefly, cells were washed with cold PBS supplemented with cycloheximide and lysed with 1× mammalian cell lysis buffer for 10 minutes on ice. Lysates were clarified by centrifugation for 10 minutes at 14,000 rpm and supernatants were collected. Cell lysates were processed to generate ribosomal protected fragments and total mRNA according to the instructions included with the ARTseq Ribosome Profiling Kit (Illumina, San Diego, Calif.). Sequencing of total RNA (RNA) and of ribosome-protected fragments of RNA (RPF) was carried out using RNA-Seq methodology according to the manufacturer's instructions (Illumina). To analyze the ribosomal profiles, RNA-Seq reads were processed with tools from the FASTX-Toolkit (fastq_quality_trimmer, fastx_clipper and fastx_trimmer). Unprocessed and processed reads were evaluated for a variety of quality measures using FastQC, and processed reads were mapped to the human genome using TopHat (see, e.g., Trapnell et al., Bioinformatics 25:1105, 2009). Gene-by-gene assessment of the number of fragments strictly and uniquely mapping to the coding region of each gene was conducted using HTSeq-count, a component of the HTSeq package. […] Genes with low counts in either RPF or RNA were excluded from differential analyses. Pathway and network analyses of differential data were conducted using Ingenuity Pathway Analysis (IPA).

Measured: effect in renormalizing the translational profile of the gene

Cc1ccc(=O)n(-c2ccccc2)c1 [pirfenidone, 5-methyl-1-phenylpyridin-2-one]
++ (++ = 1.5 to 2.0): gene SLC40A1 (ENSG00000138449)
− (− = <0.9): gene RPS6KA5 (ENSG00000100784) | gene RPS7 (ENSG00000171863) | gene RPS11 (ENSG00000142534) | gene RPS12 (ENSG00000112306) | gene RPS13 (ENSG00000110700) | gene RPS14 (ENSG00000164587) | gene RPS20 (ENSG00000008988) | gene RPS21 (ENSG00000171858) | gene RPS23 (ENSG00000186468) | gene RPS24 (ENSG00000138326) | gene RPS25 (ENSG00000118181) | gene RPS26 (ENSG00000197728) | gene RPS27A (ENSG00000143947) | gene RPSA (ENSG00000168028) | gene RTN2 (ENSG00000125744) | gene SEMA3A (ENSG00000075213) | gene SGIP1 (ENSG00000118473) | gene SH3BGR (ENSG00000185437) | gene SHC3 (ENSG00000148082) | gene SLC2A12 (ENSG00000146411) | gene SLC7A7 (ENSG00000155465) | gene SLC15A3 (ENSG00000110446) | gene SMO (ENSG00000128602) | gene SNRPA (ENSG00000077312) | gene SOX5 (ENSG00000134532) | gene SYNE2 (ENSG00000054654) | gene TDG (ENSG00000139372) | gene TEN1 (ENSG00000257949) | gene TET2 (ENSG00000168769) | gene TET3 (ENSG00000187605) | gene TGFBI (ENSG00000120708) | gene THG1L (ENSG00000113272) | gene TIMM9 (ENSG00000100575) | gene TMTC1 (ENSG00000133687) | gene TOMM7 (ENSG00000196683) | gene TOP2A (ENSG00000131747) | gene TPGS1 (ENSG00000141933) | gene TPM2 (ENSG00000198467) | gene TPT1 (ENSG00000133112) | gene TRERF1 (ENSG00000124496) | gene UBA52 (ENSG00000221983) | gene UQCRB (ENSG00000156467) | gene UTRN (ENSG00000152818) | gene VIM (ENSG00000026025) | gene ZNF581 (ENSG00000171425) | gene ZNF608 (ENSG00000168916)
+ (+ = 0.9 to 1.5): gene RPS8 (ENSG00000142937) | gene RPS9 (ENSG00000170889) | gene RPS10 (ENSG00000124614) | gene RPS15 (ENSG00000115268) | gene RPS15A (ENSG00000134419) | gene RPS16 (ENSG00000105193) | gene RPS18 (ENSG00000231500) | gene RPS19 (ENSG00000105372) | gene RPS27 (ENSG00000177954) | gene RPS28 (ENSG00000233927) | gene RPS29 (ENSG00000213741) | gene SLC25A6 (ENSG00000169100) | gene SOX6 (ENSG00000110693) | gene SPATA6 (ENSG00000132122) | gene STAMBPL1 (ENSG00000138134) | gene STS (ENSG00000101846) | gene TAF1D (ENSG00000166012) | gene THBS3 (ENSG00000169231) | gene TKT (ENSG00000163931)
